Measurements: paper PMC3480206 (Future microbiology, 2012)
In brackets after ≈: the same amount, converted by molar mass. Entries after “also recorded” stand apart in the source; their conditions may differ. Read-outs that look alike come from different tables or passages of the source.

Columns and labels:
Mtb [1] = settings: cited from earlier work
[2] = test system: Mycobacterium tuberculosis H37Rv; settings: mouse, in vivo; cited from earlier work
[3] = human, in vivo
[4] = Micronucleus assay in rats; settings: rat, in vivo
[5] = Cardiovascular safety, beagle dogs
[6] = rats; cited from earlier work
[7] = IND-directed repeat-dose toxicology studies
Mtb [8] = settings: 10 mg/kg, cited from earlier work
[9] = test system: Mycobacterium tuberculosis H37Rv; settings: cited from earlier work
[10] = test system: Salmonella–Escherichia coli; experiment: Salmonella–Escherichia coli/microsome plate incorporation assay; assay type: cell-based; settings: In vitro mutagenicity studies
Aspergillus fumigatus = experiment: MIC on Aspergillus fumigatus; assay type: cell-based
[11] = mice; cited from earlier work
[12] = test system: Mycobacterium tuberculosis H37Rv; experiment: BACTEC MIC; assay type: cell-based; settings: ATCC27294|H37RV
[13] = in vivo
[14] = In vivo pairwise drug-drug interaction studies with first-line drugs; settings: pairwise studies of SQ109 with INH, RIF or streptomycin in mice or rats
Clostridium difficile = experiment: MIC on Clostridium difficile; assay type: cell-based; settings: Clostridioides difficile
CYP450 2D6 and 2C19 = settings: cited from earlier work
[15] = test system: Helicobacter pylori clinical isolates; experiment: MIC and time-kill on Helicobacter pylori; assay type: cell-based
Mtb [16] = settings: cited from earlier work; remark: listed apart in the source
Mtb inside macrophages [17] = settings: cited from earlier work
Haemophilus influenzae = experiment: MIC on Haemophilus influenzae; assay type: cell-based
[18] = Neurological safety assessment, rats; assay type: in vivo; settings: 90-day oral dosing at 30, 120 and 240 mg/m^2/day
[19] = test system: Mycobacteria avium, marinum, chelonae and abscessus; experiment: MIC on other pathogenic Mycobacteria; assay type: cell-based
[20] = rat, in vivo; cited from earlier work
Neisseria gonorrhoeae = experiment: MIC and MBC on Neisseria gonorrhoeae; assay type: cell-based
CYP3A4 = settings: cited from earlier work
Mtb inside macrophages [21] = experiment: Intracellular killing in Mtb-infected macrophages; assay type: cell-based, Mycobacterium tuberculosis; settings: SQ109 with CFZ; Reddy V, Unpublished Data
[22] = Neurological safety assessment, beagle dogs; assay type: in vivo; settings: 90-day oral dosing at 100, 300 and 1000 mg/m^2/day
Mtb [23] = experiment: Broth microdilution MIC against Mtb; assay type: cell-based, Mycobacterium tuberculosis
[24] = test system: Mycobacteria bovis, M. bovis BCG and Mycobacteria fortuitum; assay type: cell-based
[25] = PK evaluation on coadministration with second-line drugs
Cryptococcus neoformans = experiment: MIC on Cryptococcus neoformans; assay type: cell-based
Mtb [26] = experiment: Rapid, high-dose model of TB infection; assay type: in vivo, mice; settings: murine model of acute infection
Enterococci spp. = experiment: MIC on Enterococci spp.; assay type: cell-based
[27] = Pulmonary safety testing, beagle dogs; assay type: in vivo; settings: single oral dosing at 75, 140 and 300 mg/m^2
Streptococcus pneumoniae = experiment: MIC on Streptococcus pneumoniae; assay type: cell-based
Candida spp. = experiment: MIC on Candida spp.; assay type: cell-based
[28] = Phase Ia, escalating single dose; settings: for mean maximum concentration: fasting human subjects
[29] = test system: Mycobacterium tuberculosis H37Rv; experiment: In vitro drug interaction, checkerboard titration by 96-well microdilution; assay type: cell-based
[30] = Phase Ic, multiple daily 300 mg doses
[31] = test system: Mtb gene clusters GC82 and GC120, iniBAC operon; settings: cited from earlier work
[32] = Phase Ib, multiple daily doses; assay type: in vivo, healthy humans
[33] = single oral dosing at 75, 140 and 300 mg/m^2
[34] = 300 mg with high-fat, high-calorie meal

CC(C)=CCC/C(C)=C/CNCCNC1C2CC3CC(C2)CC1C3 (stereo not drawn) [SQ109, N-geranyl-N′-(2-adamantyl)ethane-1,2-diamine]
incorporation into trehalose monomyclate (TMM) (Mtb [1]): increased | incorporation of mycolic acids into the cell wall (Mtb [1]; trehalose dimycolate and arabinogalactan-bound mycolates): decreased | activity in model of chronic TB [2]: better activity than EMB at 100 mg/kg | safety and tolerability [3]: safe and well-tolerated | Micronucleus assay in rats [4]: Negative | Blood pressure ([5]; at 75 and 140 mg/m^2): No change | Body weights [5, 33]: No change | Clinical observations [5, 33]: No deaths | Clinical pathology: hematology or clinical chemistry [5, 33]: No change | ECG waveforms (rhythms and morphology) [5, 33]: No change | Heart rate/ECG data [5, 33]: No change | tissue distribution [6]: highest concentrations of SQ109 in liver | toxicities and adverse events ([7]; 40 mg/kg/day, three animal species, except emesis in dogs): no cardiovascular, hepatic, hematologic, neurological or ocular toxicities | NOAEL ([7]; dog, rat, nonhuman primate, in vivo): 30 to 40 mg/kg/day | phospholipidosis ([7]; in vivo): did cause phospholipidosis | weight loss of infected mice (Mtb [8]; versus untreated infected mice): significantly reduced weight loss | efficacy in screening and chronic model of TB (Mtb [8]; mice): efficacious | improvement of SQ109 activity [9]: fourfold | in vitro interaction [9]: synergistic; also recorded: additive | Salmonella–Escherichia coli/microsome plate incorporation assay [10]: Negative | MIC (Aspergillus fumigatus): 8 µg/mL (≈ 24.2 µM) | concentration in lung and spleen compared with plasma [11]: at least 45 fold | MIC [12]: ≤ 0.2 µg/mL | Segment 1: effects on male and female gamete maturation, copulatory performance, fertilization, zygote development and embryo implantation [13]: No impact | Segment 2: effects on pregnant female and development of embryo and fetus from implantation [13]: No impact | in vivo drug–drug interactions or PK changes [14]: no in vivo adverse drug–drug interactions or PK changes | MIC (Clostridium difficile): 8 to 16 µg/mL (≈ 24.2 to 48.4 µM) | human CYP450 enzymes producing the four major metabolites (CYP450 2D6 and 2C19): CYP450 2D6 and 2C19 | bactericidal or bacteriostatic ([15]; H. pylori): bactericidal | time–kill assays versus first-line drugs ([15]; H. pylori): better than amoxicillin and metronidazole | MIC range ([15]; all H. pylori clinical isolates, manuscript in preparation): 2.5 to 15 µg/mL | Effect on acid-fastness of Mtb (Mtb [16]): No effect | time to kill intracellular Mtb in infected macrophage assay (Mtb inside macrophages [17]; SQ109 with sutezolid): improved synergistically | reduction of intracellular Mtb (Mtb inside macrophages [17]; at its MIC): 99% | killing of Mtb inside macrophages relative to INH and EMB (Mtb inside macrophages [17]): equivalent to INH and superior to EMB | MIC (Haemophilus influenzae): 1 to 32 µg/mL (≈ 3.03 to 96.8 µM) | Functional observational battery parameters [18]: No change | MIC [19]: 4 to 16 µg/mL (≈ 12.1 to 48.4 µM) | bioavailability of SQ109 [20]: 21.4% | MBC (Neisseria gonorrhoeae): 0.038 µg/mL (≈ 0.115 µM) | MIC (Neisseria gonorrhoeae): 0.038 µg/mL (≈ 0.115 µM) | activation of CYP450 3A4 (CYP3A4): not activated | metabolism by CYP450 3A4 (CYP3A4): nor is it metabolized | interaction in macrophage intracellular killing assay (Mtb inside macrophages [21]): synergy | Functional observational battery parameters [22]: No change | MIC (Mtb [23]; Mycobacterium tuberculosis): 0.78 µg/mL (≈ 2.36 µM) | MIC range (Mtb [23]; overall range on Mtb): 0.2 to 0.78 µg/mL | activity against other Mycobacteria [24]: active | exposure of mice to SQ109 ([25]; in the presence of CS and KAN): slightly decreased | pharmacology profile on coadministration ([25]; mice, SQ109 and MXF coadministered): not affected | MIC (Cryptococcus neoformans): 0.25 to 4 µg/mL (≈ 0.756 to 12.1 µM) | Mouse lymphoma mutation assay (Mouse lymphoma): Negative | efficacious dose for treatment of TB (Mtb [26]): 10 mg/kg/day | MIC (Enterococci spp.): 8 to 32 µg/mL (≈ 24.2 to 96.8 µM) | Minute volume [27]: No change | Respiratory rate [27]: No change | Tidal volume [27]: No change | MIC (Streptococcus pneumoniae): 2 to 4 µg/mL (≈ 6.05 to 12.1 µM) | MIC (Candida spp.): 1 to 8 µg/mL (≈ 3.03 to 24.2 µM) | food effect on half-life [28, 34]: increased | food effect on maximum serum concentration [28, 34]: decreased | mean maximum concentration ([28]; 10-mg oral dose): 0.729 ng/mL | mean maximum concentration ([28]; 300-mg oral dose): 20.2 ng/mL | serious adverse events ([28]; Phase Ia, single oral doses 5-300 mg): no serious AEs | half-life ([28]; human, serum, oral, 300 mg): 61.1 h | MIC ([29]; Mycobacterium tuberculosis, H37RV, read-out: MIC Alone): 0.5 µg/mL | in vitro interaction ([29]; SQ109 with AMK, Unpublished Data): synergy | in vitro interaction ([29]; SQ109 with CFZ, Reddy V, Unpublished Data): synergy | in vitro interaction ([29]; SQ109 with CM, Unpublished Data): synergy | in vitro interaction ([29]; SQ109 with CS, Unpublished Data): additive | in vitro interaction ([29]; SQ109 with ETA, Unpublished Data): additive | in vitro interaction ([29]; SQ109 with KAN, Unpublished Data): additive | in vitro interaction ([29]; SQ109 with MXF, Unpublished Data): synergy | in vitro interaction ([29]; SQ109 with all the rifamycins, including rifapentine and rifabutin): profound synergy | in vitro interaction ([29]; SQ109 with para-aminosalicylic acid, Unpublished Data): additive | MIC Combination ([29]; checkerboard SQ109 + CFZ, Mtb H37Rv): 0.125 µg/mL | subjects with lung concentrations above the MIC for Mtb ([30]; 12 h after dosing, expected from plasma concentration–time profile): approximately 50% | serious adverse events ([30]; Phase Ic, 300 mg daily for 14 days): no SAEs | time to steady-state conditions ([30]; daily administration of 300 mg): ≤ 10 days | lung concentration relative to SQ109 MIC ([30]; steady state, once-daily 300 mg, from preclinical plasma/lung relationship): approximately 5.8 fold | Activity on Mtb gene clusters GC82 and GC120 [31]: Downregulates | transcription of the iniBAC operon [31]: induces | tolerability ([32]; 75 mg daily for 14 days or 150 mg daily for 5 days then days 9 and 14): well tolerated | serious adverse events ([32]; Phase Ib): no SAEs
